Peptide text beside a SMILES is read from it. * marks the point of attachment. Cbz = O=C(OCc1ccccc1)*
Columns and labels:
P-eEF2 in A549 cells = test: eEF2 phosphorylation in A549 cells (western blot); type: cell-based, human; settings: for phosphorylation of eEF2: 16 h, 2DG 10 mM, rapamycin 100 nM, AZD8055 1 μM, MG132 10 μM, Fig. 2A
Description: (§1) After treatment, cells were lysed in ice-cold lysis buffer containing 1% (v/v) Triton X-100 (215680010, Acros Organics), 50 mM Tris (T6066-1KG, Sigma-Aldrich)–HCl (258148-2.5 L, Sigma-Aldrich) pH 7.4, 50 mM NaCl (BP358-212, Fisher Scientific), 0.2 mM EDTA (BP120-500, Fisher Scientific), 0.2 mM EGTA (E1102, Melford), 50 mM β-glycerophosphate (G9422, Sigma-Aldrich), 1 mM Na3VO4 (S6508, Sigma-Aldrich), 15 mM β-mercaptoethanol (125472500, Acros Organics) and 1 × protease inhibitor cocktail (5056489001, Roche). Lysates were spun at 16,000 × g for 10 min at 4 °C; the supernatants were kept and total protein concentration was quantified by Bradford assay following the manufacturer's instructions.
(§2) These procedures were performed as described previously.
Cells were then treated with 10 mM 2-deoxyglucose (2DG), rapamycin (100 nM), AZD8055 (1 μM) or MG132 (10 μM) for 16 h. Cells were then lysed and samples containing equal amounts of protein were analysed by western blot using the indicated antibodies. Values given below each lane show quantitation of the signal for LC3II, corrected for the actin signal from multiple experiments as in (A) expressed as LC3II normalized to actin, mean ± SEM (control cells without treatment = 1; n = 3). (B) A549 cells were cultured as in (A) to induce eEF2K knockdown. A549 cells were transiently transfected with the GST-BHMT construct and maintained in full media in the presence or absence of AZD8055 (1 μM) for 16 h, in the presence of leupeptin and E64d. GST-BHMT was precipitated with glutathione agarose from the whole cell extracts (bottom panel). Values given below show the quantitation of data from multiple experiments as in (B) expressed as the level of BHMT fragment normalized to the control without IPTG, mean ± SEM (control cells without treatment = 1; n = 3). Values given below each lane show quantitation of the signal for P-eEF2, corrected for the eEF2 signal from multiple experiments as in (B) expressed as P-eEF2 normalized to eEF2, mean ± SEM (control cells without treatment = 1; n = 3). (C) Cells were treated as described in Supplemental Fig. S3, visualized by confocal microscopy and the rate of autophagosome–lysosome fusion was measured according to green/red fluorescence ratio which reflect the percentage of unfused LC3. Scale bar = 20 μm. (D) Data quantification of C, data are presented as means ± SEM. (n = 5) ***P < 0.001, obtained by two-way ANOVA (Dunnett's test). (E) Untransfected A549 cells were treated with AZD8055 and BafA1 as described in A, cell lysates were collected at T0, 1 and 3 h for immunoblotting analysis. Values given below each lane show quantitation of the signal for LC3II, corrected for the LC3I signal from multiple experiments as in (E) expressed as LC3II normalized to LC3I, mean ± SEM (control cells without treatment = 1; n = 3).

P-eEF2 in WT MEFs = test: eEF2 phosphorylation in wild-type MEFs (western blot); type: cell-based, mouse; settings: MK2206 5 μM or 2DG 10 mM, 24 h, Fig. 3A
Description: as §1, with “instructions. […]” for “instructions.”
Fig. 3 Role of eEF2K in autophagy in mouse embryonic fibroblasts (MEFs). […] Cells were then lysed and samples containing equal amounts of protein were analysed by western blot using the indicated antibodies. (B) Quantitation of data from multiple experiments as in (A) expressed as LC3II normalized to actin, mean ± SEM (control cells without treatment = 1; n = 3). […] Cells were then lysed and samples containing equal amounts of protein were analysed by western blot using the indicated antibodies. (D) Quantitation of data from multiple experiments as in (C) expressed as LC3II normalized to actin, mean ± SEM (control cells without treatment = 1; n = 3).

LC3II in MEFs = test: LC3 modification in MEFs (western blot); type: cell-based, mouse; settings: 24 h; for ratio of the two forms of LC3: WT MEFs, MK2206 5 μM or 2DG 10 mM, Fig. 3A
Description: as §1, §2
Fig. 3 Role of eEF2K in autophagy in mouse embryonic fibroblasts (MEFs). Wildtype (WT) and eEF2K^−/− (KO) MEFs were treated, where indicated, with MK2206 (MK) (5 μM) or 10 mM 2-deoxyglucose (2DG) or in medium lacking glucose (− Glc) for 24 h. Cells were then lysed and samples containing equal amounts of protein were analysed by western blot using the indicated antibodies. (B) Quantitation of data from multiple experiments as in (A) expressed as LC3II normalized to actin, mean ± SEM (control cells without treatment = 1; n = 3). (C) Wild-type (WT) and eEF2K^−/− (KO) MEFs were treated, where indicated, with rapamycin (50 nM) or AZD8055 (0.5 μM) and/or chloroquine (10 μM) for 24 h. Cells were then lysed and samples containing equal amounts of protein were analysed by western blot using the indicated antibodies. (D) Quantitation of data from multiple experiments as in (C) expressed as LC3II normalized to actin, mean ± SEM (control cells without treatment = 1; n = 3).

[1] = system: eEF2K levels in A549 cells; test: eEF2K protein levels in A549 cells (western blot); type: cell-based, human; settings: CHX 5 μg/mL, 24 h, Fig. 1E
Description: as §1, §2
(§3) Fig. 1 eEF2K helps cells withstand glucose starvation. […] Cells were then lysed and samples containing equal amounts of protein were analysed by western blot using the indicated antibodies. Values given below each lane show quantitation of the signal for P-eEF2, corrected for the eEF2 signal from multiple experiments as in (A) expressed as P-eEF2 normalized to eEF2, mean ± SEM (control cells without treatment = 1; n = 3). […] Cells were lysed and caspase 3/7 activity was determined. […] Cell death was measured using CellTox Green® assay. […]

A549 cells = test: cell death of A549 cells (CellTox Green assay); type: cell-based, human; settings: CHX 5 μg/mL
Description: (§4) Caspase 3/7 assays (G8090, Promega) were performed according to the manufacturer's instructions. Briefly, 10,000 cells/well were plated overnight in a 96-well plate. Cells were treated as described in the figure legends for the indicated time period. To measure caspase 3/7 activity, 50 μL of caspase Glo 3/7 reagent was added to each well for 2 h with constant shaking at room temperature. Luminescence was measured using a BMG Labtech FLUOstar Optimi plate reader. Cytotoxicity was evaluated by CellTox Green® cytotoxicity assay (Promega). Briefly, 10,000 cells/well were plated overnight in a 96-well plate. Cells were treated as described in the figure legends for the indicated time period. Fluorescence was measured at 485–500 nmEx/520–530 nmEm using a BMG Labtech FLUOstar Optimi plate reader.
as §3

HCT116 cells = test: cell death markers in HCT116 cells (PARP cleavage, caspase 3/7 activity); type: cell-based, human; settings: CHX 5 μg/mL or Harringtonine 2 μg/mL, Fig. 1B, C
Description: as §4, §3

P-eEF2 in HCT116 cells = test: eEF2 phosphorylation in HCT116 cells (western blot); type: cell-based, human; settings: 24 h, CHX 5 μg/mL or Harringtonine 2 μg/mL, Fig. 1C
Description: as §1, §2, §3

[2] = system: mTORC1 signalling in HCT116 cells; test: mTORC1 signalling in HCT116 cells (western blot); type: cell-based, human; settings: 24 h, Harringtonine 2 μg/mL, Fig. 1C
Description: as §1, §2, §3

[3] = system: GST-BHMT cleavage (autophagic flux) in A549 cells; test: GST-BHMT cleavage assay in A549 cells; type: cell-based, human; settings: chloroquine, data not shown
LC3II in A549 cells = test: LC3 modification in A549 cells (western blot); type: cell-based, human; settings: A549 with or without eEF2K knockdown; chloroquine 10 μM; 16 h; Fig. S1
Description: as §1, §2
Cells were then treated with 10 mM 2-deoxyglucose (2DG), rapamycin (100 nM), AZD8055 (1 μM) or MG132 (10 μM) for 16 h. Cells were then lysed and samples containing equal amounts of protein were analysed by western blot using the indicated antibodies. Values given below each lane show quantitation of the signal for LC3II, corrected for the actin signal from multiple experiments as in (A) expressed as LC3II normalized to actin, mean ± SEM (control cells without treatment = 1; n = 3). (B) A549 cells were cultured as in (A) to induce eEF2K knockdown. […] (D) Data quantification of C, data are presented as means ± SEM. […]

Structure (SMILES) | phosphorylation of eEF2 (P-eEF2 in A549 cells) | level of phosphorylation of eEF2 (P-eEF2 in WT MEFs) | ratio of the two forms of LC3 (LC3II in MEFs) | cell survival in cells starved of glucose and treated with eEF2K inhibitor JAN-849 (HCT116 cells) | effect on eEF2 phosphorylation (p-eEF2) (P-eEF2 in HCT116 cells) | also measured
O=CC[C@@H](O)[C@H](O)[C@H](O)CO [2-DG, 2-deoxyglucose] | induced the phosphorylation of eEF2 | increased the level of phosphorylation of eEF2 | shift in the ratio of the two forms of LC3 from the upper (LC3I) to the lower band |  |  | 
C[C@@H]1C[C@@H]([C@H](O)CC2CC(=O)NC(=O)C2)C(=O)[C@@H](C)C1 [CHX, cycloheximide] |  |  |  | restored cell survival | modest decrease | levels of eEF2K [1]: decreased the levels of eEF2K; effect on cell survival under control conditions (A549 cells; A549): adverse effect; death induced by glucose starvation (A549 cells; A549 with eEF2K knockdown, 48 h, Fig. 1D): partially rescued; eEF2 phosphorylation (P-eEF2 in A549 cells; CHX 5 μg/mL, 24 h, Fig. 1E): decrease in eEF2 phosphorylation
COC(=O)C[C@](O)(CCC(C)(C)O)C(=O)O[C@@H]1C(OC)=C[C@]23CCCN2CCc2cc4c(cc2[C@H]13)OCO4 [Harringtonine] |  |  |  | restored cell survival | no effect | effect on mTORC1 signalling [2]: very little
CC(C)C[C@@H](C=O)NC(=O)[C@H](CC(C)C)NC(=O)[C@H](CC(C)C)NC(=O)OCc1ccccc1 [MG132] (Cbz-Leu-Leu-Leu-aldehyde) | induced the phosphorylation of eEF2 |  |  |  |  | 
NC1(c2ccc(-c3nc4ccn5c(=O)[nH]nc5c4cc3-c3ccccc3)cc2)CCC1 [MK2206] |  | increased the level of phosphorylation of eEF2 | shift in the ratio of the two forms of LC3 from the upper (LC3I) to the lower band |  |  | 
CCN(CC)CCCC(C)Nc1ccnc2cc(Cl)ccc12 (stereo not drawn) [chloroquine] |  |  |  |  |  | cleavage of GST-BHMT [3]: completely blocked; modified LC3 (LC3II in A549 cells): increased modified LC3; levels of modified LC3-II (LC3II in MEFs; MEFs treated with rapamycin (50 nM) or AZD8055 (0.5 μM), chloroquine 10 μM, Fig. 3C): increased the levels of modified LC3-II
